“And” between values parts separate entries of the source, which are not always exact repeats. Identical values can stand only once.
Test system: 843126-344-R-J1-PDC complex spheroid viability
Experiment: Anticancer human tumor 843126-344-R-J1-PDC patient-derived melanoma cell line growth inhibition [POLQ]
Settings: for viability, T/C: stronger effect = lower value; for IC50: curve of compound
Experimental: Multicellular complex tumor spheroid response to Polymerase (POL) inhibitors (novobiocin, ART-558, RP6685) in combination with a variety of drugs and investigational agents in selected tumor cell lines
The POL inhibitors (novobiocin, ART-558, and RP6685) were evaluated both individually and in combination with standard of care and investigational anticancer small molecules within a complex spheroid model of solid tumors. . Complex spheroids include a stromal component modeled by human endothelial cells (HUVEC) and fibroblasts modeled by human mesenchymal stem cells (MSCs). The concentration ranges selected for each drug and investigational agent were based upon clinically achievable concentrations if the clinical Cmax of the agent was known.
Compounds. The drugs and investigational agents: novobiocin (NSC847541), ART-558 (NSC835418), RP-6685 (NSC848927), peposertib (NSC802822), ceralasertib (NSC780249), elimusertib (NSC800525), camonsertib (NSC841442), AZD-1390 (NSC803789), olaparib (NSC753686), talazoparib (NSC767125), rucaparib (NSC756644), sotorasib (NSC818433), MRTX-1133 (NSC836407), SN-38 (NSC673596), topotecan (NSC609699), epotoside (NSC141540), doxorubicin (NSC123127), gemcitabine (NSC613327), 5-fluorouracil (NSC19893), paclitaxel (NSC125973), vemurafenib (NSC761431), MSA-2 (NSC828583), SN-011 (NSC837082), adavosertib (NSC754352), prexasertib (NSC758257), carboplatin (NSC241240) and oxaliplatin (NSC266046), were obtained from the National Cancer Institute (NCI) Developmental Therapeutics Program Chemical Repository (21). The FDA-approved anticancer drug set is available from the Developmental Therapeutics Program at https://dtp.cancer.gov/organization/dscb/obtaining/. […] The stock solutions were prepared in dimethyl sulfoxide (DMSO, Sigma-Aldrich, St. Louis, MO, cat. D2650), except for the platinum compounds which were prepared in saline (Quality Biological, Gaithersburg, MD, cat. 114-055-101), at 800-fold the tested concentration and stored at -70 degrees C prior to their use. All drugs and investigational agents were tested over a range starting from a high concentration at or near the clinical Cmax and decreasing in half-log increments. If the clinical Cmax for an agent had not been determined, the highest concentration tested was 10 microM, except for SN-38, which was tested at a high concentration of 1 microM.
Cell Culture. All cells were maintained in an incubator at 37 degrees C and 5% CO2 with 95% humidity. The PDC lines were cultured according to standard operating procedures established by the NCI PDMR (https://pdmr.cancer.gov). Table 3 of the manuscript, lists the cell lines along with the number of the three cell types plated to form the mct-spheroids and media for tumor cell growth. After thawing, all PDC lines, except 997537-175-T-J1-PDC and 415267-285-R-J2-PDC, were cultured in Matrigel-coated flasks prepared with a working solution of 1X Ham's F-12 nutrient mix, without supplementation (Thermo Fisher Scientific, cat. 11765054), 100 U/mL penicillin-streptomycin (Thermo Fisher Scientific, cat. 15140122), and 2.5% Matrigel (Corning Inc., Corning, NY, cat. 354248) for the first three passages. The two PDC lines 997537-175-T-J1-PDC and 415267-285-R-J2-PDC were cultured on uncoated flasks. The 857933-349-R-J2-PDC line was cultured in 6C/Colon 1B media containing advanced DMEM/F-12 (Thermo Fisher Scientific, cat. 12634028), 10 mM HEPES (Thermo Fisher Scientific, cat. 15630080), 1X GlutaMAX supplement (Thermo Fisher Scientific, cat. 35050061), 0.1 mg/mL primocin (InvivoGen, San Diego, CA, cat. ant-pm-2), 10% defined fetal bovine serum, heat inactivated (HyClone Laboratories Inc., Logan, UT, cat. SH30070.03HI), 50% L-WRN conditioned media (ATCC, cat. CRL-3276), 1.25 mM N-Acetyl-L-cysteine (Sigma-Aldrich, cat. A9165), 10 mM nicotinamide (Sigma-Aldrich, cat. N0636), 1X B-27 supplement (Thermo Fisher Scientific, cat. 17504044), 1X N-2 supplement (Thermo Fisher Scientific, cat. […]
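Throughout, for viability, T/C: spheroids exposed to drugs for seven days before readout.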

Structure (SMILES) | viability, T/C (compound 0.0316 µM) | viability, T/C (compound 0.1 µM) | viability, T/C (compound 0.316 µM) | viability, T/C (compound 1 µM) | viability, T/C (compound 3.16 µM) | viability, T/C (compound 10 µM) | IC50 | viability, T/C (compound 0.00316 µM) | viability, T/C (compound 0.01 µM) | viability, T/C (compound 0.00949 µM) | viability, T/C (compound 0.03 µM) | viability, T/C (compound 0.0949 µM) | viability, T/C (compound 0.3 µM) | viability, T/C (compound 0.949 µM) | viability, T/C (compound 3 µM) | viability, T/C (compound 0.000316 µM) | viability, T/C (compound 0.001 µM)
C#Cc1c(F)ccc2cc(O)cc(-c3ncc4c(N5CC6CCC(C5)N6)nc(OCC56CCCN5CC(F)C6)nc4c3F)c12 (stereo unspecified) | 90.2% and 115% and 80.5% | 116% and 88.3% and 91.5% | 96.1% and 97.6% and 95.8% | 78.2% and 100% and 82.2% | 95.1% and 96.5% and 95.2% | 87.4% and 85.2% and 85.5% | > 10000 nM | – | – | – | – | – | – | – | – | – | –
C=CC(=O)N1CCN(c2nc(=O)n(-c3c(C)ccnc3C(C)C)c3nc(-c4c(O)cccc4F)c(F)cc23)C(C)C1 (stereo unspecified) | 96.7% and 98.3% and 89.5% | 85.1% and 110% and 73.2% | 104% and 107% and 95.8% | 104% and 85.4% and 106% | 92.8% and 96.1% and 113% | 67.2% and 91% and 79.3% | > 10000 nM | – | – | – | – | – | – | – | – | – | –
C=CCn1c(=O)c2cnc(Nc3ccc(N4CCN(C)CC4)cc3)nc2n1-c1cccc(C(C)(C)O)n1 | 95.7% (2×) and 111% | 109% and 97.8% and 99.3% | 91.6% and 93.7% and 98.2% | 81.1% and 78.6% and 82.7% | – | – | > 1000 nM | 101% and 96.6% and 95.3% | 89.5% and 86.3% and 96.3% | – | – | – | – | – | – | – | –
CC(=O)O[C@H]1C(=O)[C@@]2(C)[C@H]([C@H](OC(=O)c3ccccc3)[C@]3(O)C[C@H](OC(=O)[C@H](O)[C@@H](NC(=O)c4ccccc4)c4ccccc4)C(C)=C1C3(C)C)[C@]1(OC(C)=O)CO[C@@H]1C[C@@H]2O | – | – | – | – | – | – | > 3000 nM | – | – | 65.3% and 60.5% | 54.6% and 53.3% | 64.2% and 54.8% | 75.2% and 57% | 74.7% and 55.3% | 76% and 66.8% | – | –
CC(C)n1c(=O)n(C)c2cnc3cc(F)c(-c4ccc(OCCCN5CCCCC5)nc4)cc3c21 | 88.2% and 82.8% and 83.5% | 74.9% and 88.6% and 77.2% | 89% and 79.8% and 78.8% | 86.1% and 87.7% and 92.9% | 72.1% and 79.5% and 84.4% | 72.5% and 79.1% and 55.2% | > 10000 nM | – | – | – | – | – | – | – | – | – | –
CC1COCCN1c1cc(-c2ccnn2C)c2ccnc(-c3ccn[nH]3)c2n1 (stereo unspecified) | 93.7% and 70.9% and 85.8% | 87% and 64.9% and 70.9% | 85.9% and 57.1% and 61.9% | 44.4% and 47.7% and 48.8% | 38.5% and 40.5% and 38.8% | 33.1% and 23.9% and 32.7% | 858 nM and 836 nM and 903 nM | – | – | – | – | – | – | – | – | – | –
CC1COCCN1c1cc(C2(O)CC3CCC(C2)O3)c2cnn(-c3ccn[nH]3)c2n1 (stereo unspecified) | 93.2% and 82.1% and 81.5% | 66.9% and 57.4% and 68.6% | 63.7% and 52.7% and 51.1% | 38% and 44.3% and 35.9% | 29.8% and 23.2% and 26% | 20% and 15.3% and 18.9% | 527 nM and 355 nM and 353 nM | – | – | – | – | – | – | – | – | – | –
CC1COCCN1c1cc(C2(S(C)(=N)=O)CC2)nc(-c2ccnc3[nH]ccc23)n1 (stereo unspecified) | 87.2% and 79.8% and 109% | 93.7% and 82.8% and 102% | 97.2% and 83.1% and 95% | 81.4% and 97.7% and 89.5% | 73.4% and 81.9% and 68% | 49.9% and 55.9% and 55.2% | > 10000 nM | – | – | – | – | – | – | – | – | – | –
CCCS(=O)(=O)Nc1ccc(F)c(C(=O)c2c[nH]c3ncc(-c4ccc(Cl)cc4)cc23)c1F | 101% and 86.2% | 91.1% and 76% | 87.4% and 96% | 85.6% and 76.9% | 72.9% and 74.4% | 91.5% and 59.1% | > 10000 nM | – | – | – | – | – | – | – | – | – | –
CC[C@@]1(O)C(=O)OCc2c1cc1n(c2=O)Cc2cc3c(CN(C)C)c(O)ccc3nc2-1 | 73% and 63.1% and 67.9% | 51.1% and 55.8% and 48.8% | – | – | – | – | > 100 nM and 93.3 nM | 92.7% and 105% and 96.4% | 88.6% and 93.8% and 85.1% | – | – | – | – | – | – | 84.4% and 108% and 96.4% | 99.5% and 88.4% and 89.3%
CCc1c2c(nc3ccc(O)cc13)-c1cc3c(c(=O)n1C2)COC(=O)[C@]3(O)CC | 61.5% and 68% and 63% | 71.1% and 62.4% and 61.4% | 57% and 64% and 62.5% | 53.9% and 45.5% and 50.1% | – | – | > 1000 nM | 62.8% and 69.6% and 70% | 52.5% and 56.2% and 54.6% | – | – | – | – | – | – | – | –
CCc1cc2c(N3CCc4c(cc(Cn5ccnc5)cc4-c4cn(C)nc4C(F)(F)F)C3=O)cc(C)nc2c(OC)n1 | 103% and 106% and 77.7% | 81.1% and 72.2% and 85.4% | 76.4% and 87.8% and 98.1% | 64.2% and 76.7% and 85.2% | 71.5% and 72.6% and 64.6% | 54.2% and 60.3% | > 10000 nM | – | – | – | – | – | – | – | – | – | –
CCc1cc2c(N3CCc4c(cc(Cn5ccnc5)cc4-c4cn(C)nc4C(F)(F)F)C3=O)ccnc2c(OC)n1 | 85.3% and 83.1% and 106% | 78.4% and 81% and 75.8% | 84.9% and 88.6% and 90.4% | 76% and 83.2% and 91.5% | 74.6% and 78.3% and 72.3% | 53.8% and 58.4% and 66.4% | > 10000 nM | – | – | – | – | – | – | – | – | – | –
